Where no end group is shown, it is not given here.

One experiment relates to Sixteen month old mice. Kind of experiment: In vivo trial in sixteen month old mice (sarcopenic muscle, grip strength). Here is the method: An animal trial was conducted to assess the effects of myostatin antagonist 300 in improving muscle function. Sixteen month old mice were divided into two groups of ten. While the control group received saline subcutaneous (SC) injections, the other group received myostatin antagonist 300 SC at 6 μg/gram of BW three times a week for six weeks. The functional improvement of sarcopenic muscle was assessed by measuring grip strength of mice at the end of trial. Grip strength was measured in Newtons.

In experiment [1] the test system is skin biopsy wound in C56b1/6 mice. Kind of experiment: In vivo skin biopsy trial. The settings on record: 4 mm biopsy punch; 6 μg/g SC day 1, 3, 5 and 7; vs saline, particularly later time points. Here is the method: C56b1/6 mice at ˜10 months of age were anesthetized, the skin at the back of the neck was shaved, and two wounds made on the skin with a 4 mm biopsy punch. The mice were injected subcutaneously with either saline or 300 myostatin antagonist at 6 μg/g of body weight at day 1, 3, 5 and 7 after injury. The mice were allowed to heal for 5, 7, 14, 21 and 28 days, after which they were culled and the skin processed for histology.
For the histology, skin samples were fixed in 10% formalin, embedded and mounted in paraffin and stained with Masson's Trichrome stain. The sections were analysed for the size of wound area for each day following the treatments, and the values plotted.

For experiment [2], the system named is skin burn in C56b1/6 mice. Kind of experiment: In vivo skin burn trial (hydroxyproline assay). The settings on record: 6 μg/g SC day 1, 3, 5, 7 and 10, vs control. As to the method: C56b1/6 mice at ˜12 months of age were anesthetized, the skin at the back of the neck was shaved, and a red-hot metal rod (1.5 mm wide, 7 mm long) was applied to the exposed skin of the mice for 5 sec. The mice were injected subcutaneously with either saline or 300 myostatin antagonist at 6 μg/g of body weight at day 1, 3, 5, 7 and 10 after injury. The mice were allowed to heal for 5, 7, 14, 21, 28, 35 and 46 days, after which they were culled and the skin frozen in liquid nitrogen for hydroxyproline analysis.
After a burn injury in skin a hydroxyproline assay was performed to determine the amount of collagen deposits on the wound area. Hydroxyproline is present in collagen, and gives it a stable helical conformation. Therefore, measuring the amount of hydroxyproline present in a given tissue will determine the amount of collagen present in the tissue.

Experiment [3] deals with TA muscle burn in C56b1/6 mice. In words: In vivo muscle burn trial. Here is the method: C56b1/6 mice at ˜12 months of age were anesthetized and a red-hot metal rod (1.5 mm wide, 7 mm long) was applied to TA muscle for 5 sec. The mice were injected subcutaneously with saline or 300 myostatin antagonists at 6 μg/g of body weight at day 1, 3, 5, 7 and 10 after injury. The mice were allowed to heal for 5, 7, 14, 21, 28, 35 and 46 days, after which they were culled and the muscle processed for histology.
Histological muscle samples were covered in OCT and frozen in isopentane cooled in liquid nitrogen. The sections were cut in a cryostat at 10 μm thickness and stained with H&E and Van Gieson. Regeneration markers such as total number of centrally formed nuclei (CFN) and number of fibres with CNF were analysed for each day following the different treatments, and the values plotted.

Experiment [4] deals with C57B mice injected with Dexamethasone. Kind of experiment: In vivo cachexia trial (Dexamethasone-induced). Here is the method: A study of chronic cachexia was designed whereby C57B mice, 4 weeks of age, were injected with the glucocorticoid drug Dexamethasone daily at a concentration of 1 mg/kg body weight. Three treatment groups were designed: 5 mice receiving daily injections of saline, 5 mice receiving daily injections of Dexamethasone and 5 mice receiving daily injections of Dexamethasone plus 300 antagonist at a concentration of 6μg/g body weight. Body weight of the mice was recorded daily and monitored closely for signs of cachexia. Food and water consumption was recorded to ensure that loss in body weight was not due to a loss of appetite or thirst. Body weights, fat-pad weights, and MyoD and Pax7 expression were assessed.

For another experiment, the system named is Wild type mice. In words: In vivo sarcopenia trial, 10 month administration in wild type mice. As to the method:
Wild type mice (32 mice approx. 4-5 months of age) were injected subcutaneously fortnightly or monthly with 300 (6 μg/g body weight) or saline for a period of 10 month. Muscle strength was assessed using a grip strength apparatus (MK-380S, Muromachi; Tokyo, Japan) at the end of the trial. The maximum force exerted by a mouse while being pulled backward by the tail is recorded in Newtons. The mean of three grip tests for each mouse was calculated and the mean maximal force per group was determined.

For “myostatin antagonist 300: recombinant peptide, amino acids 267-300 of bovine myostatin, with N terminal and C terminal tag (SEQ ID NO: 6) (DFGLDCDEHSTESRCCRYPLTVDFEAFGWDWIIA; cysteine pairing not given here; also: N- and C-terminal tags; listed as Homo sapiens)”, the “body fat compared with saline treated controls” value in the experiment on Sixteen month old mice (16 month old mice, 6 week treatment, observation, result not shown) is reported as “reduced the amount of subcutaneous fat including the inguinal fat pad”. Besides, the “average percent change in grip strength” value in the experiment on Sixteen month old mice (aged mice, 6 μg/g BW SC three times a week, six week period) is given as “highly significant increase”. Moreover, in the experiment with Sixteen month old mice (aged mice, day 0 and day 42, 6 μg/g BW SC three times a week), the “grip strength at the beginning and end of the trial” value was “significantly increased”. The wound area result in experiment [1] is “smaller wound area”. Besides, the “collagen on the wound area (hydroxyproline assay)” value in experiment [2] is “tendency towards lower level of collagen”. Moreover, the “H&E staining of the muscle” value in experiment [3] (21 days after burn injury) is “darker stained fibres, many with centrally formed nuclei”. The “degree of fibrosis (van Gieson staining)” value in experiment [3] (D21 after injury) is “higher degree of fibrosis in the control group”. Besides, the “number of fibres with centrally formed nuclei (CFN)” value in experiment [3] (after muscle burn, compared to saline) was “increased number”. In experiment [3] (from D28 onwards, data not shown), the “percentage of damage muscle area, treatment vs control” value is reported as “no difference”. The “numbers of centrally formed nuclei (CFN)” value in experiment [3] (muscle burn, by D21, maintained up to day 46, vs control) is “significantly higher”. Moreover, the “Pax7 expression (Western blot)” value in experiment [4] (Dexamethasone and 300, right gastrocnemius, p<0.01) is reported as “significant up-regulation (rescue)”. Moreover, in experiment [4] (Dexamethasone and 300, right gastrocnemius, p<0.05), the “MyoD expression (Western blot)” value is listed as “significant up-regulation (rescue)”. In experiment [4] (Dexamethasone plus 300), the “increase in left inguinal fat-pad weight” value came to 33.2%, the “increase in left retroperitoneal fat-pad weight” value is recorded as 23.3%, the “increase in right inguinal fat-pad weight” value stood at 39% and the “increase in right retroperitoneal fat-pad weight” value turned out to be 39.2%. Besides, the “average body weight loss” value in experiment [4] (co-treatment Dexamethasone 1 mg/kg and 300 6 μg/g daily) is listed as “smaller average body weight loss”. In addition, the “increase of muscle function, fortnightly compared with monthly application” value in the experiment on Wild type mice (6 μg/g SC fortnightly for 10 month, data not shown) is recorded as “equally effective”. Also, the “grip strength over saline control at the end of the trial” value with Wild type mice (6 μg/g SC monthly for 10 month, p<0.01) is “significant increase”.

(Values after patent US8309068B2, “Isolated polypeptides and methods of improving muscle strength” (Myostin Therapeutics Pty Ltd., priority 2006, dated 2012).)
